Data as given in ChEMBL document CHEMBL1201862, “PubChem BioAssay data set” (2004).
The source made the active and inactive calls.

How the values were obtained:
[1] = molecular target: Photoreceptor-specific nuclear receptor (Homo sapiens, UniProt Q9Y5X4); assay type: functional, cell-based;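 note: CHO-S cells with Gal4-NCOR and VP16-NR2E3 two-hybrid luciferase reporter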
[2] = Shn3 3'UTR reporter inhibitors, dose response, cell-based, Clone20 osteoblasts, firefly luciferase, cherry-picked (AID 624132); assay type: functional;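 note: firefly luciferase luminescence from reporter carrying the Shn3 3'UTR in osteoblasts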
[3] = control 3'UTR Renilla luciferase suppression, dose response, counter-screen for Shn3 inhibitor project, cell-based, Clone20-Shn3RL, cherry-picked (AID 624133); assay type: functional
[4] = molecular target: T1, Protein RecA (Mycobacterium tuberculosis, UniProt P9WHJ3); experiment: Fluorescence Cell-Free Homogeneous Dose Retest to Identify Inhibitors of RecA-Intein Splicing Activity. [Related pubchem assays (depositor defined):AID2097, AID2223, AID489010, AID492950]; assay type: functional
T1 sequence (P9WHJ3 whole entry): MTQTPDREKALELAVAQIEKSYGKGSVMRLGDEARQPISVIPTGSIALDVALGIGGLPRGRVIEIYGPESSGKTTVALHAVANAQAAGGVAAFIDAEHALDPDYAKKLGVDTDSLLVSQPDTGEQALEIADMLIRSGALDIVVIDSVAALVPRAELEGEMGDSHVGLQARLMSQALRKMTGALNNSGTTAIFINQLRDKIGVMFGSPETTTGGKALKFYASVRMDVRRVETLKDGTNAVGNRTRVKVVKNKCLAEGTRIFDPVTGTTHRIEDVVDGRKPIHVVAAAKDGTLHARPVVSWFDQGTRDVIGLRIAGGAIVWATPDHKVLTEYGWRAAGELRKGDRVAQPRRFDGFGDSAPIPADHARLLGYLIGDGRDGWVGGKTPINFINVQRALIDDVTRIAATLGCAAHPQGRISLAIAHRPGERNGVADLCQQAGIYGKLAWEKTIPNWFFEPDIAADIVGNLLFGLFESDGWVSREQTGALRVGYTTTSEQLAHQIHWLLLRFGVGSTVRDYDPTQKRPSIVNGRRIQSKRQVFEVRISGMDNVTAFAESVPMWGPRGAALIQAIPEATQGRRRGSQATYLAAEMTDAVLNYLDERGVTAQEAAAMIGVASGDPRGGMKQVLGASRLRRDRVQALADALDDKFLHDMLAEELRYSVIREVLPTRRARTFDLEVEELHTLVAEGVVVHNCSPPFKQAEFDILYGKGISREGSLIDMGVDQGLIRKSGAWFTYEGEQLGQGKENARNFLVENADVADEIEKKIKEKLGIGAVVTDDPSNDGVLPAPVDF

[5] = molecular target: Paired box protein Pax-8 (Homo sapiens, UniProt Q06710); experiment: inhibitors of PAX8-driven TPO luciferase reporter, dose response, RMG-I cells, cherry-pick (AID 687027); assay type: functional, cell-based;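 note: luciferase reporter driven by Pax8 target thyroperoxidase promoter measured by SteadyGlo luminescence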
Chain of Paired box protein Pax-8 (Q06710 whole entry): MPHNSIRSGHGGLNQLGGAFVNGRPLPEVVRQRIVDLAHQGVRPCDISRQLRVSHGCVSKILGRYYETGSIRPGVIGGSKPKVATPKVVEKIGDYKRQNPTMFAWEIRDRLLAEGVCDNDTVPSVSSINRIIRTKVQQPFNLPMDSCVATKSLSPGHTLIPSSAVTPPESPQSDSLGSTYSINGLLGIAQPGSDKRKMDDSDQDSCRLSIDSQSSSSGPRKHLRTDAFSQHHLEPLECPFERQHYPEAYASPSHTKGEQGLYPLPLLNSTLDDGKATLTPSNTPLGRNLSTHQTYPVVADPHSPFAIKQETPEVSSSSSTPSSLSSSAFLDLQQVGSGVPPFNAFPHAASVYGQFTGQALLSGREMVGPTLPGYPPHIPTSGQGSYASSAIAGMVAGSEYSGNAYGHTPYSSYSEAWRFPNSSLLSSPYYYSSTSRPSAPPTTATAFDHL

[6] = molecular target: T2, Replicative DNA helicase DnaB (Mycobacterium tuberculosis, UniProt P9WMR3); experiment: DnaB intein splicing inhibitors, dose response, biochemical, cell-free fluorescence (AID 449749); assay type: functional
T2 sequence (P9WMR3 whole entry): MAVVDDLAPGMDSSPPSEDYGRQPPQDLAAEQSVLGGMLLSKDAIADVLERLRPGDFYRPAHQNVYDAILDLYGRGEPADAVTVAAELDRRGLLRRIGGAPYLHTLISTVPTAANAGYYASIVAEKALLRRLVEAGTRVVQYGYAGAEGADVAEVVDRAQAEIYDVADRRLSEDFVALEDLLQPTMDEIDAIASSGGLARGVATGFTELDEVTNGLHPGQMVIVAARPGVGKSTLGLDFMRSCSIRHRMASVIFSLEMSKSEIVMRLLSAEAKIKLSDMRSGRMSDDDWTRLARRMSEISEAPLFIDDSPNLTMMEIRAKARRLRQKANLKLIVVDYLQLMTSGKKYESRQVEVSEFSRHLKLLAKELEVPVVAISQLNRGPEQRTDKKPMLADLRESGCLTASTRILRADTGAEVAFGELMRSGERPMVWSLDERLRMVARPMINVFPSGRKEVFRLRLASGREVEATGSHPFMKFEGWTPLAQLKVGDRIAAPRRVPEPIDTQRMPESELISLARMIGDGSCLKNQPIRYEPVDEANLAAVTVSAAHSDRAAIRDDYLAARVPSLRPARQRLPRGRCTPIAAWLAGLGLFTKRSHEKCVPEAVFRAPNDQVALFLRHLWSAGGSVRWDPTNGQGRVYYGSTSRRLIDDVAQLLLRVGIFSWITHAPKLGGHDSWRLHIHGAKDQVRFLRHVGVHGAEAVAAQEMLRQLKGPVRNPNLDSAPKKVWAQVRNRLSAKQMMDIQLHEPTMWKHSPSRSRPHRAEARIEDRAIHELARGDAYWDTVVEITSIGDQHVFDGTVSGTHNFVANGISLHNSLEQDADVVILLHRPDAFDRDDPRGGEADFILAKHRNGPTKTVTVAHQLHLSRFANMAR

[7] = HepG2 cell cytotoxicity, dose response, cytotoxicity control for Shn3 inhibitor project, CellTiter-Glo, cherry-picked (AID 624134); assay type: functional, cell-based
[8] = tested on: INS1; experiment: beta cell apoptosis inhibitors, cytokine rescue, dose response, luminescence, retest (AID 449756); assay type: functional, cell-based; conditions: Rattus norvegicus;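 note: cell death triggered by IL-1 beta plus TNF-alpha plus IFN-gamma mixture; protective hits raise ATP signal compared with cytokine alone wells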
[9] = tested on: HEK293; experiment: cells; assay type: functional, cell-based; conditions: Homo sapiens
[10] = molecular target: T3, Nuclear receptor subfamily 0 group B member 1 (Homo sapiens, UniProt P51843); experiment: Luminescence-based cell-based high throughput dose response assay for inhibitors of the orphan nuclear receptor subfamily 0, group B, member 1 (DAX1; NR0B1). [Related pubchem assays (depositor defined):AID504766, AID504790]; assay type: functional
T3 sequence (P51843 whole entry): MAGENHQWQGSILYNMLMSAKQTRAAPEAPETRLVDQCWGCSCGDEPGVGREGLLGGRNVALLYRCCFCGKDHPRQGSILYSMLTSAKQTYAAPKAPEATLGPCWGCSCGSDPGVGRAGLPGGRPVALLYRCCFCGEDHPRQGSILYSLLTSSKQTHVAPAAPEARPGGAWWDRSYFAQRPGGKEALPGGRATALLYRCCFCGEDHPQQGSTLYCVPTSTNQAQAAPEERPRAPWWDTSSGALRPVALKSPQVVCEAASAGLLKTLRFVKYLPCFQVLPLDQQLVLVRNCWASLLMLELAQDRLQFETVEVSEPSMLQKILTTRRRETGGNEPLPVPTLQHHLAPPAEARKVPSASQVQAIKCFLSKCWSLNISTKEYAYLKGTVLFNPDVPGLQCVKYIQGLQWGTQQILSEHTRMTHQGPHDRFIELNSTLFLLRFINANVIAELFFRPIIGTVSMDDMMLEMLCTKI

[11] = molecular target: T4, DNA repair and recombination protein RAD54-like (Homo sapiens, UniProt Q92698); experiment: inhibitors of human RAD54 branch migration, confirmation, biochemical, fluorescence, cherry-picked samples, dose series (AID 651657); assay type: functional
T4 sequence (Q92698 whole entry): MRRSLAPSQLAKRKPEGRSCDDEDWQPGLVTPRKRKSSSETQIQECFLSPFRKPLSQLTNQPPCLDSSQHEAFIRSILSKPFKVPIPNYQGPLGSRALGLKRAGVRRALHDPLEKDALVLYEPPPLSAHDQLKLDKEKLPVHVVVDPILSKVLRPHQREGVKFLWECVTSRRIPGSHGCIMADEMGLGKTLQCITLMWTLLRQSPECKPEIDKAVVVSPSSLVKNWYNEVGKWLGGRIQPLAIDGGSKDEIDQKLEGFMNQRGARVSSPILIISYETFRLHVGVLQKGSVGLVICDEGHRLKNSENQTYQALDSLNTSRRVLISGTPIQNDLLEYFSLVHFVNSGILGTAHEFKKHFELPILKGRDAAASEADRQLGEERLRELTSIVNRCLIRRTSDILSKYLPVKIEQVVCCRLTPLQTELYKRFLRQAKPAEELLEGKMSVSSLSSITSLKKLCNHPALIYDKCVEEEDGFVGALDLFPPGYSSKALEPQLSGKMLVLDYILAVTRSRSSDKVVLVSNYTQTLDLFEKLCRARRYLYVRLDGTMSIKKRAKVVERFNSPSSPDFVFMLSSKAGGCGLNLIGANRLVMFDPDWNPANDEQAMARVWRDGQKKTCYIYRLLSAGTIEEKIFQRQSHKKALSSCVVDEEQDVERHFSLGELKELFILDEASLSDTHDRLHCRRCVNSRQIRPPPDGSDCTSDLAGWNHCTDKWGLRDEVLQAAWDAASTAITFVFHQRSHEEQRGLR

[12] = molecular target: T5, DNA repair protein RAD52 homolog (Homo sapiens, UniProt P43351); assay type: functional, biochemical
T5 sequence (P43351 whole entry): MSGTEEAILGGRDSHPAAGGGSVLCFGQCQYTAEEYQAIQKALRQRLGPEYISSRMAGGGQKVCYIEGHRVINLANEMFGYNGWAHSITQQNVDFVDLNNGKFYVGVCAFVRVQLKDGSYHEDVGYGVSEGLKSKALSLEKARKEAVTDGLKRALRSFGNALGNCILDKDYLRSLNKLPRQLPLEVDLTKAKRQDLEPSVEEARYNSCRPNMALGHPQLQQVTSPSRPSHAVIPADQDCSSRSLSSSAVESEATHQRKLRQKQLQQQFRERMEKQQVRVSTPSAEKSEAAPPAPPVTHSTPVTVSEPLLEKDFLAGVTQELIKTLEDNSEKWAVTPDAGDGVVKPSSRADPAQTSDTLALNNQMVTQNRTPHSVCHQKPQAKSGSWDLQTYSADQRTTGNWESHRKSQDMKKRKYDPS

[13] = inhibitors of intracellular T. cruzi replication, confirmation, NIH3T3 host cells, beta-gal luminescence (AID 2044); assay type: functional, cell-based;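 note: intracellular parasites grown in NIH/3T3 mouse fibroblasts as host cells; luminescent beta-galactosidase reporter signal from transgenic T. cruzi replicating inside host cells; inhibitors lower the luminescence signal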
[14] = cytotoxicity toward NIH3T3 fibroblasts, dose response, counter-screen, cell-based, ATP luminescence, mouse fibroblasts (AID 2010); assay type: functional;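 note: cells exposed to compound for about 90 hours before reading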
[15] = molecular target: Heat shock protein HSP 90-alpha (Homo sapiens, UniProt P07900); assay type: functional, organism-based
[16] = inhibitors of Vif binding to APOBEC3G peptide, primary screen, biochemical, TR-FRET, GST-Vif 1-94, biotin-A3G peptide, dose response retest (AID 1117319); assay type: functional;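 note: TR-FRET signal of purified GST-Vif binding a biotinylated A3G peptide; inhibitors lower the FRET signal by blocking Vif and A3G binding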

Chain of Photoreceptor-specific nuclear receptor (Q9Y5X4 whole entry, the tested form may be a part): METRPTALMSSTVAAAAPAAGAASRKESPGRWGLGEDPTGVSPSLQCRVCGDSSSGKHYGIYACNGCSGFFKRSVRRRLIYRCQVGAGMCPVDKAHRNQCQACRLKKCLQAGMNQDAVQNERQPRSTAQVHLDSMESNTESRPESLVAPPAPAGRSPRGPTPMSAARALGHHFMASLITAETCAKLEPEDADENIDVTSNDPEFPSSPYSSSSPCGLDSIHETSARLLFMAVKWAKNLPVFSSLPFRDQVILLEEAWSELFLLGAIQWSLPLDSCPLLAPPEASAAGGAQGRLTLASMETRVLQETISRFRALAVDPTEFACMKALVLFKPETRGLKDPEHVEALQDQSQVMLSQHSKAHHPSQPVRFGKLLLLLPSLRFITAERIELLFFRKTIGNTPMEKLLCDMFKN

CC(C)c1ccc(/C=C(\c2nc3ccccc3[nH]2)S(=O)(=O)c2ccccc2)cc1
active: IC50 [1] 2.72 µM | AC50 [2] 4.01 µM | AC50 [3] 10.5 µM | EC50 [4] 2.01 µM | AC50 [5] 5.15 µM | AC50 [6] 2.09 µM | AC50 [7] 18 µM | AC50 [8] 4.38 µM

CCOc1ccc(-c2nnc(-c3ccco3)o2)cc1OCC
inactive: IC50 [9] > 67.5 µM | IC50 [10] > 67.5 µM

Cc1cc(N2CCN(C)CC2)nc2ccc(NC(S)=NCCCN3CCN(C)CC3)cc12
active: AC50 [11] 24.6 µM | AC50 [12] 3.59 µM

Cc1ccc2nc3c(c(Nc4ccc(O)cc4)c2c1)CCC3
active: AC50 [11] 39 µM | EC50 [13] 1.06 µM | EC50 [14] 8.88 µM | AC50 [12] 20.5 µM

COc1ccc(NC(=O)C2CCCN2S(=O)(=O)c2cccc3cccnc23)c(OC)c1 (centres undefined)
active: AC50 [15] 1.49 µM | IC50 [16] > 100 µM

Nc1cccc(Oc2c(F)c(F)c(Oc3cccc(N)c3)c(F)c2F)c1
active: AC50 [15] 7.55 µM
